Laboratory results published in PubChem BioAssay AID330 (DTP/NCI, 2004).
Several values for one entry are separate records, joined by “and”; a condition that tells them apart may be missing. Equal entries are not always repeated. Inconclusive results and toxic doses are left out. How the source made its calls: active means survival T/C of 150% or more; inactive means T/C below 125% in these data.

Test system: P388 leukemia ip, CD2F1 mice, survival T/C
Assay: NCI In Vivo Anticancer Drug Screen. Data for tumor model P388 Leukemia (intraperitoneal) in CD2F1 (CDF1) mice
Conditions: endpoint: median survival time, higher = longer survival
Procedure, shortened: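 Mice carrying the transplanted tumor received test compound or vehicle. Survival was recorded in each group, and the value is the treated-group measurement divided by that of the vehicle-treated control group.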

[1] = dose: 50.0 mg/kg/injection, schedule: Q01DX005 (ip), vehicle: saline with Tween-80
[2] = dose: 100.0 mg/kg/injection, schedule: Q01DX005 (ip), vehicle: saline with Tween-80
[3] = dose: 200.0 mg/kg/injection, schedule: Q01DX005 (ip), vehicle: saline with Tween-80
[4] = dose: 60.0 mg/kg/injection, schedule: Q01DX005 (ip), vehicle: saline with Tween-80
[5] = dose: 120.0 mg/kg/injection, schedule: Q01DX005 (ip), vehicle: saline with Tween-80
[6] = dose: 240.0 mg/kg/injection, schedule: Q01DX005 (ip), vehicle: saline with Tween-80
[7] = dose: 12.5 mg/kg/injection, schedule: Q01DX009 (ip), vehicle: water
[8] = dose: 25.0 mg/kg/injection, schedule: Q01DX009 (ip), vehicle: water
[9] = dose: 50.0 mg/kg/injection, schedule: Q01DX009 (ip), vehicle: water
[10] = dose: 100.0 mg/kg/injection, schedule: Q01DX009 (ip), vehicle: water
[11] = dose: 200.0 mg/kg/injection, schedule: Q01DX009 (ip), vehicle: water
[12] = dose: 50.0 mg/kg/injection, schedule: Q01DX005 (ip), vehicle: Klucel (hydroxypropylcellulose) (HPC)
[13] = dose: 100.0 mg/kg/injection, schedule: Q01DX005 (ip), vehicle: Klucel (hydroxypropylcellulose) (HPC)
[14] = dose: 200.0 mg/kg/injection, schedule: Q01DX005 (ip), vehicle: Klucel (hydroxypropylcellulose) (HPC)
[15] = dose: 50.0 mg/kg/injection, schedule: Q01DX009 (ip), vehicle: Klucel (hydroxypropylcellulose) (HPC)
[16] = dose: 100.0 mg/kg/injection, schedule: Q01DX009 (ip), vehicle: Klucel (hydroxypropylcellulose) (HPC)
[17] = dose: 200.0 mg/kg/injection, schedule: Q01DX009 (ip), vehicle: Klucel (hydroxypropylcellulose) (HPC)
[18] = dose: 50.0 mg/kg/injection, schedule: Q01DX009 (ip), vehicle: saline with Tween-80
[19] = dose: 100.0 mg/kg/injection, schedule: Q01DX009 (ip), vehicle: saline with Tween-80
[20] = dose: 200.0 mg/kg/injection, schedule: Q01DX009 (ip), vehicle: saline with Tween-80

Measured: T/C

Clc1ccc(C(Nc2nncs2)Nc2nncs2)cc1Cl
inactive: dose: 60.0 mg/kg/injection, schedule: Q01DX005 (ip), vehicle: Klucel (hydroxypropylcellulose) (HPC) 94 % of control | dose: 120.0 mg/kg/injection, schedule: Q01DX005 (ip), vehicle: Klucel (hydroxypropylcellulose) (HPC) 96 % of control | dose: 240.0 mg/kg/injection, schedule: Q01DX005 (ip), vehicle: Klucel (hydroxypropylcellulose) (HPC) 102 % of control

CC(=O)C(=Cc1ccc(C)cc1)C(C)=O
inactive: [1] 99 % of control | [2] 103 % of control | [3] 110 % of control

N#CC(C(=O)CCC(=O)C(C#N)c1ccccc1Cl)c1ccccc1Cl (centres undefined)
inactive: [4] 104 % of control | [5] 114 % of control | [6] 111 % of control

C=C1C(=O)O[C@@H]2CCC[C@H]12
inactive: [7] 105 % of control | [8] 112 % of control | [9] 112 % of control | [10] 108 % of control | [11] 112 % of control

CCN(CC)c1ccc(N=Nc2nc(Cl)c(/C=C3\C(=O)c4ccccc4C3=C(C#N)C#N)s2)c(NC(C)=O)c1
inactive: [4] 96 % of control | [5] 97 % of control | [6] 95 % of control

Cc1cc(C)c(C#N)c(SC(C(=O)NC(C)(C)C)c2ccccc2)n1 (centres undefined)
inactive: [12] 88 % of control | [13] 87 % of control | [14] 87 % of control

O=C(CC1CCCC/C1=N\O)NO (centres undefined)
inactive: [15] 100 % of control | dose: 100.0 mg/kg/injection, schedule: Q01DX001 (ip), vehicle: Klucel (hydroxypropylcellulose) (HPC) 106 % of control | [16] 100 % of control | dose: 200.0 mg/kg/injection, schedule: Q01DX001 (ip), vehicle: Klucel (hydroxypropylcellulose) (HPC) 112 % of control | [17] 117 % of control | dose: 400.0 mg/kg/injection, schedule: Q01DX001 (ip), vehicle: Klucel (hydroxypropylcellulose) (HPC) 109 % of control

O=C1/C(=C/c2ccc([N+](=O)[O-])cc2)Cc2c1cccc2[N+](=O)[O-]
inactive: dose: 25.0 mg/kg/injection, schedule: Q01DX001 (ip), vehicle: saline with Tween-80 98 % of control | dose: 50.0 mg/kg/injection, schedule: Q01DX001 (ip), vehicle: saline with Tween-80 98 % of control | dose: 100.0 mg/kg/injection, schedule: Q01DX001 (ip), vehicle: saline with Tween-80 99 % of control and 95 % of control | dose: 200.0 mg/kg/injection, schedule: Q01DX001 (ip), vehicle: saline with Tween-80 93 % of control | dose: 400.0 mg/kg/injection, schedule: Q01DX001 (ip), vehicle: saline with Tween-80 89 % of control

Cc1ccc(C(=O)CC[N+](C)(C)C)cc1
inactive: dose: 3.13 mg/kg/injection, schedule: Q01DX009 (ip), vehicle: saline 109 % of control | dose: 6.25 mg/kg/injection, schedule: Q01DX009 (ip), vehicle: saline 113 % of control | dose: 12.5 mg/kg/injection, schedule: Q01DX009 (ip), vehicle: saline 109 % of control

CCOC(=O)c1nc(C)nc(N)c1C
inactive: [7] 102 % of control | [8] 91 % of control | [9] 93 % of control | [10] 100 % of control | [11] 100 % of control

N#CC1C(=O)NC(=S)NC1c1ccccc1 (centres undefined)
inactive: [15] 95 % of control | [16] 101 % of control | [17] 98 % of control

COC(OC)C1CC=CCCC1C(=O)O (centres undefined)
inactive: dose: 60.0 mg/kg/injection, schedule: Q01DX005 (ip), vehicle: saline 91 % of control | dose: 120.0 mg/kg/injection, schedule: Q01DX005 (ip), vehicle: saline 107 % of control | dose: 240.0 mg/kg/injection, schedule: Q01DX005 (ip), vehicle: saline 96 % of control

CCOc1ccc2nc3cc(N=Nc4ccc(N(C)C)cc4)ccc3c(N)c2c1
inactive: [18] 110 % of control | [19] 110 % of control

COC(=O)/C(=C/c1ccccc1)N(C(C)=O)C(C)=O
inactive: [4] 100 % of control | [5] 105 % of control | [6] 107 % of control

C(=N\Nc1nc2ccccc2s1)/c1ccc(/C=N/Nc2nc3ccccc3s2)cc1
inactive: [18] 105 % of control | [19] 105 % of control | [20] 102 % of control

O=C(O)C1C(C(=O)O)C1c1ncnc2nc[nH]c12 (centres undefined)
inactive: dose: 25.0 mg/kg/injection, schedule: Q04DX003 (ip), vehicle: saline 99 % of control and 100 % of control | dose: 50.0 mg/kg/injection, schedule: Q04DX003 (ip), vehicle: saline 100 % of control and 101 % of control | dose: 100.0 mg/kg/injection, schedule: Q04DX003 (ip), vehicle: saline 98 % of control and 103 % of control and 100 % of control | dose: 200.0 mg/kg/injection, schedule: Q04DX003 (ip), vehicle: saline 103 % of control and 104 % of control | dose: 400.0 mg/kg/injection, schedule: Q04DX003 (ip), vehicle: saline 100 % of control and 99 % of control

COc1ccc2c(c1)N(S(=O)(=O)c1ccc(C)cc1)C/C(=C\N1CCN(C)CC1)C2=O
inactive: [12] 97 % of control | [13] 108 % of control | [14] 101 % of control

O=C1C=C2CCCCCCCCCC(C1)C2 (centres undefined)
inactive: [12] 99 % of control | [13] 99 % of control | [14] 89 % of control

O=C(O)c1cc(-c2ccccc2)[nH]c1-c1ccccc1
inactive: dose: 12.5 mg/kg/injection, schedule: Q01DX009 (ip), vehicle: saline with Tween-80 103 % of control | dose: 25.0 mg/kg/injection, schedule: Q01DX009 (ip), vehicle: saline with Tween-80 106 % of control | [18] 90 % of control

Cc1cccc(NC(=O)N(C(C)C)C(C)C)c1
inactive: dose: 60.0 mg/kg/injection, schedule: Q01DX005 (ip), vehicle: Klucel + Tween-80 100 % of control | dose: 120.0 mg/kg/injection, schedule: Q01DX005 (ip), vehicle: Klucel + Tween-80 97 % of control | dose: 240.0 mg/kg/injection, schedule: Q01DX005 (ip), vehicle: Klucel + Tween-80 89 % of control

O=S(=O)(O)SCCNCCc1ccccn1
inactive: dose: 12.5 mg/kg/injection, schedule: Q01DX005 (ip), vehicle: water 104 % of control | dose: 25.0 mg/kg/injection, schedule: Q01DX005 (ip), vehicle: water 109 % of control | dose: 50.0 mg/kg/injection, schedule: Q01DX005 (ip), vehicle: water 109 % of control | dose: 100.0 mg/kg/injection, schedule: Q01DX005 (ip), vehicle: water 107 % of control

N#Cc1ccc(Cl)cc1
inactive: [18] 101 % of control | [19] 89 % of control | [20] 93 % of control

CC(=O)/C(=C\c1cccc(Cl)c1)C(=O)CCN(C)C
inactive: [4] 108 % of control and 111 % of control | [5] 115 % of control

CCCCCCCCC1(O)OC(=O)C(C)=C1C (centres undefined)
inactive: dose: 12.5 mg/kg/injection, schedule: Q04DX003 (ip), vehicle: saline with Tween-80 100 % of control | dose: 25.0 mg/kg/injection, schedule: Q04DX003 (ip), vehicle: saline with Tween-80 100 % of control | dose: 50.0 mg/kg/injection, schedule: Q04DX003 (ip), vehicle: saline with Tween-80 103 % of control

CCCCCCCCCCCC1NC(=S)NC(=O)C1C#N (centres undefined)
inactive: [15] 95 % of control | [16] 93 % of control | [17] 92 % of control

CNC(=O)C(C(=O)NC)n1cnc(C(=O)OC)c1O
inactive: dose: 60.0 mg/kg/injection, schedule: Q01DX005 (ip), vehicle: water 108 % of control | dose: 120.0 mg/kg/injection, schedule: Q01DX005 (ip), vehicle: water 107 % of control | dose: 240.0 mg/kg/injection, schedule: Q01DX005 (ip), vehicle: water 107 % of control

O=c1cc2c(n[nH]1)-c1ccccc1C2
inactive: [1] 100 % of control | [2] 109 % of control | [3] 96 % of control

COc1ccc(Cc2cc(C(C)(C)C)cc(C(C)(C)C)c2O)cc1
inactive: dose: 50.0 mg/kg/injection, schedule: Q01DX005 (ip), vehicle: distilled water + alcohol 96 % of control | dose: 100.0 mg/kg/injection, schedule: Q01DX005 (ip), vehicle: distilled water + alcohol 96 % of control | dose: 200.0 mg/kg/injection, schedule: Q01DX005 (ip), vehicle: distilled water + alcohol 95 % of control
